From patent publication US20230174933A1, “METHODS OF MAKING CHIMERIC ANTIGEN RECEPTOR-EXPRESSING CELLS” (Novartis AG, priority 2020, published 2023)

Legend:
[1] = tested on: BCMA-CAR; assay: ARM-BCMA CAR expression kinetics in vitro with or without AZT (FACS); format: cell-based; details: AZT 30 μM and 100 μM
Experimental: In contrast to TM which measures lentiviral integration of the CAR transgene after 8-9 days, in the ARM process, the lentiviral transgene may not be fully integrated and truly expressed within 24 h post lentiviral addition, as lentiviral pseudotransduction could occur (Haas D L, et al., (2000) Mol Ther; 2(1):71-80; Galla M, et al., (2004) Mol Cell; 16(2):309-15). […] Flow cytometry (FACS) analyses were performed to detect CAR surface expression at 24 h, 48 h, 72 h, 96 h and 168 h post T cell activation and transduction with the lentiviral vector. In some cases, ARM-BCMA CAR and an aliquot of this product were frozen down immediately upon harvest for additional characterization in other assays.

[2] = tested on: T cells; assay: T cell expansion with cytokines after αCD3/αCD28 bead stimulation; format: cell-based
Experimental: Previously frozen T cells were thawed and contacted with αCD3/αCD28 dynal beads (cell to bead ratio of 1 to 3) in the presence of indicated cytokines at day 0. From day 3, twice more T cell growth media (RPMI1640, 10% FBS, 2 mM L-glutamin, 100 μM non-essential amino acids, 1 mM sodium pyruvate, 10 mM Hepes, 55 μM β-mercaptoethanol, 10% FBS, and 100 U/ml of penicillin-streptomycin) was added to the plate with indicated cytokines (without cytokine, rhIL2 (50 IU/ml, Novartis), IL6 (long/ml, R&D systems), IL7 (long/ml, Peprotech), IL15 (long/ml, Peprotech), and IL21 (long/ml, Peprotech)) at day 3, 5, 6, 9, 12, 15, and 18.
Cells were harvested at indicated time points and then stained with live/dead dye (eFluro780, eBioscience), CD3 (BioLegend, clone#: OKT3), CD4 (BioLegend, clone#: OKT4), CD8 (BD Bioscience, clone#: RPA-T8), CD45RO (BioLegend, clone#: UCHL1), CCR7 (BioLegend, clone#: G043H7), CD27 (BD Horizon, clone#: L128), CD127 (BioLegend, clone#: A019D5), CD57 (BioLegend, clone#: HCD57), CD126 (BioLegend, clon#: UV4), and CD130 (R&D Systems, clone#: 28126) antibodies. The cells were acquired by FACS Fortessa and then FlowJo program was used for data analysis.

[3] = tested on: T cells activated with αCD3αCD28 beads; assay: Fold expansion, cell size and viability of cytokine treated T cells after TCR engagement; format: cell-based; details: T cells activated with αCD3αCD28 beads at day 0 in the presence of cytokine
Description: FIG. 12: Fold expansion of cytokine treated T cells after TCR engagement. T cells were activated with αCD3αCD28 beads at day 0 in the presence of indicated cytokines and then monitored for cell numbers at indicated time points.
T cells were activated with αCD3αCD28 beads at day 0 in the presence of indicated cytokines and then monitored for cell size (FIG. 13A) and viability (FIG. 13B) at indicated time points.

[4] = biological target: T1, BCMA (TNFRSF17) of the commercial human plasma membrane protein array (human, UniProt Q02223 1-184, limits assumed); assay: commercial human plasma membrane protein array
T1 sequence (looked up): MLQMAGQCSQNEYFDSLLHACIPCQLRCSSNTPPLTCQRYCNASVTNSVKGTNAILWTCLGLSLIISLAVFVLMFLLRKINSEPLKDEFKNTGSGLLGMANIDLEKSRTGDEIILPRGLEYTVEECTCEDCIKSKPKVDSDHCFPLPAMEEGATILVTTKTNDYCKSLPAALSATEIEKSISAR

Molecule: Cc1cn([C@H]2C[C@H](N=[N+]=[N-])[C@@H](CO)O2)c(=O)[nH]c1=O [AZT, 3′-azido-3′-deoxythymidine]
- inhibition of CAR expression [1]: effectively inhibit CAR expression

Molecule: IL15: cytokine
- expansion of IL6Rβ expressing cells [2]: enhanced expansion of IL6Rβ expressing cells
- T cell expansion ([2]; αCD3/αCD28 bead stimulated T cells plus cytokine): showing the greatest enhancement
- cell size [3]: did not affect
- viability [3]: did not affect

B1: anti-human BCMA single chain antibody variable fragment (scFv) (PI61) (scFv)
scFv: QVQLQESGGGVVQPGRSLRLSCAASGFTFSSYGMHWVRQAPGKGLEWVAVISYDGSNKYYADSVKGRFTISRDNSKNTLYLQMNSLRAEDTAVYYCGGSGYALHDDYYGLDVWGQGTLVTVSSGGGGSGGGGSGGGGSQSALTQPASVSGSPGQSITISCTGTSSDVGGYNYVSWYQQHPGKAPKLMIYDVSNRPSGVSNRFSGSKSGNTASLTISGLQAEDEADYYCSSYTSSSTLYVFGSGTKVTVL
notes: also called PI61 scFv
- binding result [4]: binds
